Structures can show the parent of a compound that is named as a salt.
The compounds below were run against T1, TNIK (Homo sapiens, UniProt Q9UKE5) (assay: ADP-Glo Kinase Assay, inhibition activity on TNIK). Conditions: read-out: TNIK.
T1 construct: purchased Promega V4158
Format: biochemical
Experimental: The inhibition activities on TNIK, IKKε and TBK1 were measured by a luminometer, TNIK/IKKε/TBK1 Kinase Enzyme System (Promega, Ca# V4158; Invitrogen, PR8031B, Promega, Ca# V3991) and ADP-Glo Kinase Assay using ADP-Glo™ Kinase Analysis Kit (Promega, Ca# V9101) and a kinase reaction buffer [40 mM Tris(pH 7.5), 20 mM MgCl2, 0.1 mg/mL BSA] in accordance with the manufacturer's protocol.

T1 sequence (Q9UKE5 1-367 limits assumed): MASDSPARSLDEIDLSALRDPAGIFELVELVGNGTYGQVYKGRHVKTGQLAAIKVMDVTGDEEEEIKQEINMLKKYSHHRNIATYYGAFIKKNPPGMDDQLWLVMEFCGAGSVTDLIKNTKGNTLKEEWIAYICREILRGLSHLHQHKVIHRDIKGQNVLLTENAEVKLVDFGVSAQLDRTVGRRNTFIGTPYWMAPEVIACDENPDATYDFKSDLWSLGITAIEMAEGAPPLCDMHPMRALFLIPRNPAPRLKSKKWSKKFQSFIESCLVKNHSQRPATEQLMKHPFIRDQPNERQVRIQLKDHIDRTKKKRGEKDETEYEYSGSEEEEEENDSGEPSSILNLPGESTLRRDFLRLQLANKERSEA

Structure (SMILES) | IC50 [nM]
O=C(Nc1ccc(Br)c2c1C(=O)NC2)c1ccc(NCCN2CCCCC2)cc1 [Example 284, N-(7-bromo-3-oxoisoindolin-4-yl)-4-((2-(piperidin-1-yl)ethyl)amino)benzamide] | 1550
O=C(Nc1ccc(Br)c2c1C(=O)NC2)c1ccc(NCCN2CCCCCC2)cc1 [Example 285, 4-((2-(azepan-1-yl)ethyl)amino)-N-(7-bromo-3-oxoisoindolin-4-yl)benzamide] | 1130
CN(C)CCCNc1ccc(C(=O)Nc2ccc(Br)c3c2C(=O)NC3)cc1 [Example 286, N-(7-bromo-3-oxoisoindolin-4-yl)-4-((3-(dimethylamino)propyl)amino)benzamide] | 1480
O=C(Nc1ccc(-c2ccco2)c2c1C(=O)NC2)c1ccc(NCCN2CCCC2)cc1 [Example 287, N-(7-(furan-2-yl)-3-oxoisoindolin-4-yl)-4-((2-(pyrrolidin-1-yl)ethyl)amino)benzamide] | 660
COCCNc1ccc(C(=O)Nc2ccc(-c3ccco3)c3c2C(=O)NC3)cc1 [Example 288, N-(7-(furan-2-yl)-3-oxoisoindolin-4-yl)-4-((2-methoxyethyl)amino)benzamide] | 450
O=C(Nc1ccc(-c2ccco2)c2c1C(=O)NC2)c1ccc(NCCN2CCCCC2)cc1 [Example 289, N-(7-(furan-2-yl)-3-oxoisoindolin-4-yl)-4-((2-(piperidin-1-yl)ethyl)amino)benzamide] | 360
O=C(Nc1ccc(-c2ccco2)c2c1C(=O)NC2)c1ccc(NCCN2CCOCC2)cc1 [Example 290, N-(7-(furan-2-yl)-3-oxoisoindolin-4-yl)-4-((2-morpholinoethyl)amino)benzamide] | 180
CN(C)CCNc1ccc(C(=O)Nc2ccc(-c3ccco3)c3c2C(=O)NC3)cc1 [Example 291, 4-((2-(Dimethylamino)ethyl)amino)-N-(7-(furan-2-yl)-3-oxoisoindolin-4-yl)benzamide] | 540
O=C(Nc1ccc(-c2ccco2)c2c1C(=O)NC2)c1ccc(NCCO)cc1 [Example 292, N-(7-(furan-2-yl)-3-oxoisoindolin-4-yl)-4-((2-hydroxyethyl)amino)benzamide] | 470
O=C(Nc1ccc(-c2ccco2)c2c1C(=O)NC2)c1ccc(NCCN2CCCCCC2)cc1 [Example 293, 4-((2-(Azepan-1-yl)ethyl)amino)-N-(7-(furan-2-yl)-3-oxoisoindolin-4-yl)benzamide] | 480
CN1CCN(CCNc2ccc(C(=O)Nc3ccc(-c4ccco4)c4c3C(=O)NC4)cc2)CC1 [Example 294, N-(7-(furan-2-yl)-3-oxoisoindolin-4-yl)-4-((2-(4-methylpiperazin-1-yl)ethyl)amino)benzamide] | 230
CN1CCN(CCCNc2ccc(C(=O)Nc3ccc(-c4ccco4)c4c3C(=O)NC4)cc2)CC1 [Example 295, N-(7-(furan-2-yl)-3-oxoisoindolin-4-yl)-4-((3-(4-methylpiperazin-1-yl)propyl)amino)benzamide] | 520
COc1cccc(-c2ccc(NC(=O)c3ccc(NCCCN4CCOCC4)cc3)c3c2CNC3=O)c1OC [Example 296, N-(7-(2,3-dimethoxyphenyl)-3-oxoisoindolin-4-yl)-4-((3-morpholinopropyl)amino)benzamide] | 85
COc1cccc(-c2ccc(NC(=O)c3ccc(NCCN4CCOCC4)cc3)c3c2CNC3=O)c1OC [Example 297, N-(7-(2,3-dimethoxyphenyl)-3-oxoisoindolin-4-yl)-4-((2-morpholinoethyl)amino)benzamide] | 75
COc1cccc(-c2ccc(NC(=O)c3ccc(NCCN4CCCCC4)cc3)c3c2CNC3=O)c1OC [Example 298, N-(7-(2,3-dimethoxyphenyl)-3-oxoisoindolin-4-yl)-4-((2-(piperidin-1-yl)ethyl)amino)benzamide] | 78
COc1cccc(-c2ccc(NC(=O)c3ccc(NCCN4CCCC4)cc3)c3c2CNC3=O)c1OC [Example 299, N-(7-(2,3-dimethoxyphenyl)-3-oxoisoindolin-4-yl)-4-((2-(pyrrolidin-1-yl)ethyl)amino)benzamide] | 50
COCCNc1ccc(C(=O)Nc2ccc(-c3cccc(OC)c3OC)c3c2C(=O)NC3)cc1 [Example 300, N-(7-(2,3-dimethoxyphenyl)-3-oxoisoindolin-4-yl)-4-((2-methoxyethyl)amino)benzamide] | 110
COc1cccc(-c2ccc(NC(=O)c3ccc(NCCN(C)C)cc3)c3c2CNC3=O)c1OC [Example 301, N-(7-(2,3-dimethoxyphenyl)-3-oxoisoindolin-4-yl)-4-((2-(dimethylamino)ethyl)amino)benzamide] | 100
COc1ccccc1-c1ccc(NC(=O)c2ccc(NCCCN3CCCC3)cc2)c2c1CNC2=O [Example 302, N-(7-(2-methoxyphenyl)-3-oxoisoindolin-4-yl)-4-((3-(pyrrolidin-1-yl)propyl)amino)benzamide] | 160

Structure (SMILES) | IC50 [nM]
COc1ccccc1-c1ccc(NC(=O)c2ccc(NCCN3CCCC3)cc2)c2c1CNC2=O [Example 303, N-(7-(2-methoxyphenyl)-3-oxoisoindolin-4-yl)-4-((2-(pyrrolidin-1-yl)ethyl)amino)benzamide hydrochloride] | 300
COc1cccc(-c2ccc(NC(=O)c3ccc(NCCN4CCCC4)cc3)c3c2CNC3=O)c1OC [Example 304, N-(7-(2,3-dimethoxyphenyl)-3-oxoisoindolin-4-yl)-4-((2-(pyrrolidin-1-yl)ethyl)amino)benzamide hydrochloride] | 73
COc1ccccc1-c1ccc(NC(=O)c2ccc(NCCN(C)C)cc2)c2c1CNC2=O [Example 305, 4-((2-(Dimethylamino)ethyl)amino)-N-(7-(2-methoxyphenyl)-3-oxoisoindolin-4-yl)benzamide] | 200
COc1cccc(-c2ccc(NC(=O)c3ccc(NCCCN(C)C)cc3)c3c2CNC3=O)c1OC [Example 306, N-(7-(2,3-dimethoxyphenyl)-3-oxoisoindolin-4-yl)-4-((3-(dimethylamino)propyl)amino)benzamide] | 74
COc1ccccc1-c1ccc(NC(=O)c2ccc(NCCCN3CCCCC3)cc2)c2c1CNC2=O [Example 307, N-(7-(2-methoxyphenyl)-3-oxoisoindolin-4-yl)-4-((3-(piperidin-1-yl)propyl)amino)benzamide] | 190
COc1cccc(-c2ccc(NC(=O)c3ccc(NCCCN4CCCCC4)cc3)c3c2CNC3=O)c1OC [Example 308, N-(7-(2,3-dimethoxyphenyl)-3-oxoisoindolin-4-yl)-4-((3-(piperidin-1-yl)propyl)amino)benzamide] | 53
Cc1cc(NCCN2CCCC2)ccc1C(=O)Nc1ccc(-c2ccccc2)c2c1C(=O)NC2 [Example 309, 2-Methyl-N-(3-oxo-7-phenylisoindolin-4-yl)-4-((2-(pyrrolidin-1-yl)ethyl)amino)benzamide] | 4820
COCCCNc1ccc(C(=O)Nc2ccc(-c3cccnc3OC)c3c2C(=O)NC3)cc1 [Example 310, 4-((3-Methoxypropyl)amino)-N-(7-(2-methoxypyridin-3-yl)-3-oxoisoindolin-4-yl)benzamide] | 390
COc1cccc(-c2ccc(NC(=O)c3ccc(NCCO)cc3)c3c2CNC3=O)c1OC [Example 311, N-(7-(2,3-dimethoxyphenyl)-3-oxoisoindolin-4-yl)-4-((2-hydroxyethyl)amino)benzamide] | 52
COc1cccc(-c2ccc(NC(=O)c3ccc(N4CCOCC4)cc3)c3c2CNC3=O)c1OC [Example 312, N-(7-(2,3-dimethoxyphenyl)-3-oxoisoindolin-4-yl)-4-morpholinobenzamide] | 730
COc1c(F)cccc1-c1ccc(NC(=O)c2ccc(NCCN3CCCC3)cc2)c2c1CNC2=O [Example 313, N-(7-(3-fluoro-2-methoxyphenyl)-3-oxoisoindolin-4-yl)-4-((2-(pyrrolidin-1-yl)ethyl)amino)benzamide] | 450
COc1cccc(-c2ccc(NC(=O)c3ccc(NCCN4CCN(C)CC4)cc3)c3c2CNC3=O)c1OC [Example 314, N-(7-(2,3-dimethoxyphenyl)-3-oxoisoindolin-4-yl)-4-((2-(4-methylpiperazin-1-yl)ethyl)amino)benzamide] | 86
COc1cccc(-c2ccc(NC(=O)c3ccc(NCCN)cc3)c3c2CNC3=O)c1OC [Example 315, 4-((2-Aminoethyl)amino)-N-(7-(2,3-dimethoxyphenyl)-3-oxoisoindolin-4-yl)benzamide] | 37
COc1cccc(-c2ccc(NC(=O)c3ccc(NCCCN4CCN(C)CC4)cc3)c3c2CNC3=O)c1OC [Example 316, N-(7-(2,3-dimethoxyphenyl)-3-oxoisoindolin-4-yl)-4-((3-(4-methylpiperazin-1-yl)propyl)amino)benzamide] | 57
O=C(Nc1ccc(-c2ccccc2)c2c1C(=O)NC2)c1ccc(NCCN2CCCC2)cc1 [Example 317, N-(3-oxo-7-phenylisoindolin-4-yl)-4-((2-(pyrrolidin-1-yl)ethyl)amino)benzamide] | 360
COc1ccccc1-c1ccc(NC(=O)c2ccc(NCCN3CCCC3)cc2)c2c1CNC2=O [Example 318, N-(7-(2-methoxyphenyl)-3-oxoisoindolin-4-yl)-4-((2-(pyrrolidin-1-yl)ethyl)amino)benzamide] | 260
CN1CCN(c2ccc(C(=O)Nc3ccc(-c4ccccc4)c4c3C(=O)NC4)cc2)CC1 [Example 319, 4-(4-Methylpiperazin-1-yl)-N-(3-oxo-7-phenylisoindolin-4-yl)benzamide] | 2700
O=C(Nc1ccc(-c2ccccc2)c2c1C(=O)NC2)c1ccc(N2CCOCC2)cc1 [Example 320, 4-Morpholino-N-(3-oxo-7-phenylisoindolin-4-yl)benzamide] | 8800
COCCNc1ccc(C(=O)Nc2ccc(-c3ccccc3)c3c2C(=O)NC3)cc1 [Example 321, 4-((2-Methoxyethyl)amino)-N-(3-oxo-7-phenylisoindolin-4-yl) benzamide] | 500
